Laboratory results from patent US12180143B1, “8-((4-hydroxy-3-methoxyphenyl)diazenyl)naphthalene-1,3-disulfonic acid as an antioxidant compound” (KING FAISAL UNIVERSITY, priority 2023, dated 2024).

Assay: DPPH radical scavenging antioxidant test
Assay type: biochemical
Settings: 517 nm; for Inhibition (radical scavenging inhibition): 0.2 mL DPPH (0.75 mM), compound 3 μM in ethanol, 30 min incubation in the dark
Experimental: The antioxidant properties of the 8-((4-hydroxy-3-methoxyphenyl)diazenyl) naphthalene-1,3-disulfonic acid were studied by adding 0.2 mL DPPH (0.75 mM)) to compound 8-((4-hydroxy-3-methoxyphenyl)diazenyl) naphthalene-1,3-disulfonic acid (III) (3 μM) in ethanol. After 30 min of incubation in the dark, the absorbance was read against a blank at 517 nm. Ascorbic acid (vitamin C) was used as standard antioxidants (positive control). A blank sample was prepared by 0.2 ml of DPPH in 3 mL ethanol. A negative control sample was run using ethanol instead of the sample. The radical scavenging inhibition was calculated using the following equation: […]

SMILES: COc1cc(/N=N/c2cccc3cc(S(=O)(=O)O)cc(S(=O)(=O)O)c23)ccc1O [Product III, 8-((4-hydroxy-3-methoxyphenyl)diazenyl) naphthalene-1,3-disulfonic acid]
- Inhibition (radical scavenging inhibition): 48%
- antioxidant potential to vanish the DPPH radical distinctive colors, compared to vitamin C (DPPH in vitro test, vitamin C as positive control): high potential as an antioxidant compared to vitamin C

SMILES: O=C1O[C@H]([C@@H](O)CO)C(O)=C1O [vit c, Ascorbic acid, reference compound]
- Inhibition (radical scavenging inhibition): 74%
